# Key:
# Type in all cases: functional
# [1] = tested on: Prevotella nigrescens; assay: Antibacterial activity against Prevotella nigrescens by CLSI M11-A6 agar dilution method
# [2] = tested on: Bifidobacterium longum; assay: Antibacterial activity against Bifidobacterium longum by CLSI M11-A6 agar dilution method
# [3] = tested on: Fusobacterium mortiferum; assay: Antibacterial activity against Fusobacterium mortiferum by CLSI M11-A6 agar dilution method
# [4] = tested on: Clostridium sporogenes; assay: Antibacterial activity against Clostridium sporogenes by CLSI M11-A6 agar dilution method
# [5] = tested on: Bacteroides thetaiotaomicron; assay: Antibacterial activity against Bacteroides thetaiotaomicron by CLSI M11-A6 agar dilution method
# [6] = tested on: Finegoldia magna; assay: Antibacterial activity against Finegoldia magna by CLSI M11-A6 agar dilution method
# [7] = tested on: Flavonifractor plautii; assay: Antibacterial activity against Clostridium orbiscindens by CLSI M11-A6 agar dilution method
# [8] = tested on: Prevotella bivia; assay: Antibacterial activity against Prevotella bivia by CLSI M11-A6 agar dilution method
# [9] = tested on: Collinsella aerofaciens; assay: Antibacterial activity against Colinsella aerofaciens by CLSI M11-A6 agar dilution method
# [10] = tested on: Bifidobacterium adolescentis; assay: Antibacterial activity against Bifidobacterium adolescentis by CLSI M11-A6 agar dilution method
# [11] = tested on: Streptococcus intermedius; assay: Antibacterial activity against Streptococcus intermedius by CLSI M11-A6 agar dilution method
# [12] = tested on: Propionibacterium propionicum; assay: Antibacterial activity against Propionibacterium propionicus by CLSI M11-A6 agar dilution method; conditions: Arachnia propionica
# [13] = tested on: Clostridium beijerinckii; assay: Antibacterial activity against Clostridium beijerinckii by CLSI M11-A6 agar dilution method
# [14] = tested on: Enterocloster clostridioformis; assay: Antibacterial activity against Clostridium clostridioforme by CLSI M11-A6 agar dilution method
# [15] = tested on: Clostridium tertium; assay: Antibacterial activity against Clostridium tertium by CLSI M11-A6 agar dilution method
# [16] = tested on: Ruminococcus lactaris; assay: Antibacterial activity against Ruminococcus lactaris by CLSI M11-A6 agar dilution method
# [17] = tested on: Parabacteroides merdae; assay: Antibacterial activity against Parabacteroides merdae by CLSI M11-A6 agar dilution method
# [18] = tested on: Clostridium scindens; assay: Antibacterial activity against Clostridium scindens by CLSI M11-A6 agar dilution method
# [19] = tested on: Ruminococcus torques; assay: Antibacterial activity against Ruminococcus torques by CLSI M11-A6 agar dilution method; conditions: Mediterraneibacter torques
# [20] = tested on: Odoribacter splanchnicus; assay: Antibacterial activity against Bacteroides splanchnicus by CLSI M11-A6 agar dilution method
# [21] = tested on: Prevotella disiens; assay: Antibacterial activity against Prevotella P disiens by CLSI M11-A6 agar dilution method
# [22] = tested on: Phocaeicola vulgatus; assay: Antibacterial activity against Bacteroides vulgatus by CLSI M11-A6 agar dilution method
# [23] = tested on: Sutterella wadsworthensis; assay: Antibacterial activity against Sutterella wadsworthensis by CLSI M11-A6 agar dilution method
# [24] = tested on: Clostridium subterminale; assay: Antibacterial activity against Clostridium subterminale by CLSI M11-A6 agar dilution method
# [25] = tested on: Ruminococcus sp.; assay: Antibacterial activity against Ruminococcus sp. by CLSI M11-A6 agar dilution method
# [26] = tested on: Ruminococcus gnavus; assay: Antibacterial activity against Ruminococcus gnavus by CLSI M11-A6 agar dilution method; conditions: Mediterraneibacter gnavus
# [27] = tested on: Hoylesella oralis; assay: Antibacterial activity against Prevotella oralis by CLSI M11-A6 agar dilution method
# [28] = tested on: Clostridium perfringens; assay: Antibacterial activity against Clostridium perfringens by CLSI M11-A6 agar dilution method
# [29] = tested on: Bifidobacterium pseudolongum; assay: Antibacterial activity against Bifidobacterium pseudolongum by CLSI M11-A6 agar dilution method
# [30] = tested on: Peptoniphilus asaccharolyticus; assay: Antibacterial activity against Peptoniphilus asaccharolyticus by CLSI M11-A6 agar dilution method
# [31] = tested on: Actinomyces naeslundii; assay: Antibacterial activity against Actinomyces naeslundii by CLSI M11-A6 agar dilution method
# [32] = tested on: Streptococcus constellatus; assay: Antibacterial activity against Streptococcus constellatus by CLSI M11-A6 agar dilution method
# [33] = tested on: Bilophila wadsworthia; assay: Antibacterial activity against Bilophila wadsworthia by CLSI M11-A6 agar dilution method
# [34] = tested on: Streptococcus anginosus; assay: Antibacterial activity against Streptococcus anginosus by CLSI M11-A6 agar dilution method
# [35] = tested on: Thomasclavelia ramosa; assay: Antibacterial activity against Clostridium ramosum by CLSI M11-A6 agar dilution method
# [36] = tested on: Prevotella denticola; assay: Antibacterial activity against Prevotella P denticola by CLSI M11-A6 agar dilution method
# [37] = tested on: Clostridium bartlettii; assay: Antibacterial activity against Clostridium bartlettii by CLSI M11-A6 agar dilution method; conditions: Intestinibacter bartlettii
# [38] = tested on: Parabacteroides distasonis; assay: Antibacterial activity against Parabacteroides distasonis by CLSI M11-A6 agar dilution method
# [39] = tested on: Clostridium paraputrificum; assay: Antibacterial activity against Clostridium paraputrificum by CLSI M11-A6 agar dilution method
# [40] = tested on: Clostridium hathewayi; assay: Antibacterial activity against Clostridium hathewayi by CLSI M11-A6 agar dilution method; conditions: Hungatella hathewayi
# [41] = tested on: Parvimonas micra; assay: Antibacterial activity against Peptostreptococcus micros by CLSI M11-A6 agar dilution method
# [42] = tested on: Fusobacterium varium; assay: Antibacterial activity against Fusobacterium varium by CLSI M11-A6 agar dilution method
# [43] = tested on: Ruminococcus albus; assay: Antibacterial activity against Ruminococcus albus by CLSI M11-A6 agar dilution method; conditions: Hominimerdicola alba
smiles,measurement,setting,value
Cc1ncc([N+](=O)[O-])n1CCO [METRONIDAZOLE],MIC50,[1],0.5 µg/mL
same,MIC90,[1],1 µg/mL
same,MIC50,[2],1 µg/mL
same,MIC90,[2],128 µg/mL
same,MIC50,[3],≤ 0.12 µg/mL
same,MIC90,[3],0.25 µg/mL
same,MIC50,[4],0.25 µg/mL
same,MIC90,[4],1 µg/mL
same,MIC50,[5],1 µg/mL
same,MIC90,[5],1 µg/mL
same,MIC50,[6],0.5 µg/mL
same,MIC90,[6],2 µg/mL
same,MIC50,[7],0.25 µg/mL
same,MIC90,[7],1 µg/mL
same,MIC50,[8],0.5 µg/mL
same,MIC90,[8],1 µg/mL
same,MIC50,[9],1 µg/mL
same,MIC90,[9],128 µg/mL
same,MIC50,[10],1 µg/mL
same,MIC90,[10],128 µg/mL
same,MIC50,[11],128 µg/mL
same,MIC90,[11],> 128 µg/mL
same,MIC50,[12],1 µg/mL
same,MIC90,[12],128 µg/mL
same,MIC50,[13],0.25 µg/mL
same,MIC90,[13],1 µg/mL
same,MIC,[14],≤ 0.12 µg/mL
same,MIC50,[14],≤ 0.12 µg/mL
same,MIC90,[14],≤ 0.12 µg/mL
same,MIC50,[15],0.25 µg/mL
same,MIC90,[15],1 µg/mL
same,MIC50,[16],≤ 0.12 µg/mL
same,MIC90,[16],0.25 µg/mL
same,MIC50,[17],1 µg/mL
same,MIC90,[17],2 µg/mL
same,MIC50,[18],0.25 µg/mL
same,MIC90,[18],1 µg/mL
same,MIC50,[19],≤ 0.12 µg/mL
same,MIC90,[19],0.25 µg/mL
same,MIC50,[20],0.25 µg/mL
same,MIC90,[20],1 µg/mL
same,MIC50,[21],0.5 µg/mL
same,MIC90,[21],1 µg/mL
same,MIC50,[22],0.5 µg/mL
same,MIC90,[22],1 µg/mL
same,MIC50,[23],16 µg/mL
same,MIC90,[23],> 128 µg/mL
same,MIC50,[24],≤ 0.12 µg/mL
same,MIC90,[24],0.25 µg/mL
same,MIC50,[25],0.5 µg/mL
same,MIC90,[25],2 µg/mL
same,MIC50,[26],0.25 µg/mL
same,MIC90,[26],0.25 µg/mL
same,MIC50,[27],0.5 µg/mL
same,MIC90,[27],1 µg/mL
same,MIC50,[28],0.5 µg/mL
same,MIC90,[28],1 µg/mL
same,MIC50,[29],1 µg/mL
same,MIC90,[29],128 µg/mL
same,MIC50,[30],0.5 µg/mL
same,MIC90,[30],2 µg/mL
same,MIC50,[31],1 µg/mL
same,MIC90,[31],128 µg/mL
same,MIC50,[32],128 µg/mL
same,MIC90,[32],> 128 µg/mL
same,MIC50,[33],≤ 0.12 µg/mL
same,MIC90,[33],0.25 µg/mL
same,MIC50,[34],128 µg/mL
same,MIC90,[34],> 128 µg/mL
same,MIC50,[35],0.5 µg/mL
same,MIC90,[35],1 µg/mL
same,MIC50,[36],0.5 µg/mL
same,MIC90,[36],1 µg/mL
same,MIC50,[37],0.25 µg/mL
same,MIC90,[37],1 µg/mL
same,MIC50,[38],1 µg/mL
same,MIC90,[38],2 µg/mL
same,MIC50,[39],0.25 µg/mL
same,MIC90,[39],1 µg/mL
same,MIC50,[40],0.25 µg/mL
same,MIC90,[40],0.5 µg/mL
same,MIC50,[41],0.5 µg/mL
same,MIC90,[41],2 µg/mL
same,MIC50,[42],≤ 0.12 µg/mL
same,MIC90,[42],0.25 µg/mL
same,MIC50,[43],≤ 0.12 µg/mL
same,MIC90,[43],0.25 µg/mL
